# Literature values as cited in US20140112913A1, “METHODS OF PROGNOSING AND ADMINISTERING TREATMENT FOR INFLAMMATORY DISORDERS” (Genqual Corporation, priority 2011, published 2014).
# Details: treatment of rheumatoid arthritis; patients who failed adequate treatment with other approved therapies
substance,measurement,value
Actemra: anti-IL-6 humanized mAb against soluble and cellular IL-6 receptor,failure rate due to side effects or lack of efficacy,around one-third
